Test results reported in patent US9521846B2, “Template-fixed peptidomimetics with antimicrobial activity” (priority 2006, dated 2016).
Non-standard residues stand in square brackets, D forms with d. Residues, ends and D or L forms follow the SMILES beside them. Dab = NCC[C@H](N)C(=O)O

Legend:
HELA cells (Acc57) = test: Cytotoxicity assay, MTT reduction (LC 50, GI 50); assay type: cell-based
Method in brief: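 HeLa cells seeded at 7.0×10^3 cells/well, grown 24 h, then exposed to peptides at 12.5, 25 and 50 μM in triplicate for 48 h at 37 °C; MTT (0.5 mg/ml, 2 h), A595 read. Percent growth was taken relative to time-zero plates; LC50 and GI50 were interpolated by linear trend at −50% and 50% growth.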

in vivo = test: in vivo; design: species or system CD-1 mice
Experimental: Pharmacokinetic Study after Single Intravenous, Subcutaneous and Intraperitoneal Administration in Mice Pharmacokinetic study after single intravenous (i.v.) and subcutaneous (s.c.) administration was performed for the compound of Example 1 (“Ex. 1”). CD-1 mice (20-25 g) were used in the study. Physiological saline was used a vehicle. The volume was 2 ml/kg i.v., and 5 ml/kg s.c. and the peptide Ex. 1 was injected to give a final intravenous dose of 1 mg/kg, and a subcutaneous dose of 5 mg/kg. […] Plasma was removed from pelleted cells upon centrifugation and frozen at −80° C. prior to HPLC-MS analysis. “Blank” mouse plasma from untreated animals was used. Aliquots of plasma of 0.2 ml each were spiked with 50 ng of propranolol (Internal Standard, IS), (sample preparation by solid phase extraction on OASIS® BIB cartridges (Waters)) and with known amounts of Ex. 1 in order to obtain 9 plasma calibration samples in the range 10-5000 nM. […] The plate containing eluates was introduced into the concentrator system and taken to dryness. […] Samples coming from animal treatments were pooled in order to obtain an appropriate volume for the extraction. If the total volume obtained was less than 0.2 ml the appropriate amount of “blank” mouse plasma was added in order to keep the matrix identical to the calibration curve. Samples were than spiked with IS and processed as described for the calibration curve. PK analysis was performed on pooled data (generally n=2 or 3) using the software Win Nonlin (Pharsight). The area under the curve AUC was calculated by the linear trapezoidal rule. Elimination half-life was calculated by the linear regression on at least three data points during the elimination phase. The time intervals selected for the half-life determinations were evaluated by the correlation coefficient (r^2), which should be at least above 0.85 and most optimally above 0.96. In case of i.v. administration the initial concentration at tzero was determined by extrapolation of the curve through the first two time points. Finally bioavailability after […]. administration was calculated from the normalised AUCinf_D_obs ration after s.c. versus i.v. administration.

CC[C@H](C)[C@@H]1NC(=O)[C@H](Cc2c[nH]c3ccccc23)NC(=O)[C@H]([C@@H](C)O)NC(=O)[C@@H]2CCCN2C(=O)[C@H]2CCCN2C(=O)[C@H](CCN)NC(=O)[C@H](C)NC(=O)[C@H](CCN)NC(=O)[C@H](CCN)NC(=O)[C@H](Cc2c[nH]c3ccccc23)NC(=O)[C@H](CCN)NC(=O)[C@H](CCN)NC(=O)[C@H](CCCCN)NC(=O)[C@H](CCN)NC1=O [Example 1] (cyclo(TWI[Dab]K[Dab][Dab]W[Dab][Dab]A[Dab][dP]P))
Cytotoxicity GI50 Hela cells (HELA cells (Acc57)): 30 µM | Vd (in vivo; CD-1, mouse, iv, 1 mg/kg): 1.14 L/kg | clearance (in vivo; CD-1, mouse, iv, 1 mg/kg): 25.7 mL/min/kg | level at 0.25 h (in vivo; CD-1, mouse, iv, 1 mg/kg): 575 ng/mL | level at 1 h (in vivo; CD-1, mouse, iv, 1 mg/kg): 177 ng/mL | level at 3 h (in vivo; CD-1, mouse, iv, 1 mg/kg): 10.6 ng/mL | level at 8 h (in vivo; CD-1, mouse, sc, 5 mg/kg): 7.3 ng/mL | bioavailability (in vivo; mouse, 5 mg/kg): 118.2% | bioavailability (in vivo; mouse, 5 mg/kg, Bioavailability): 118% | AUC(0-inf) (in vivo; mouse, iv, 1 mg/kg): 680 ng·h/mL | C0 (in vivo; mouse, iv, 1 mg/kg): 2170 ng/mL | Cmax_D (in vivo; mouse, iv, 1 mg/kg): 1268.0 kg·ng/mL/mg | Tmax (in vivo; mouse, iv, 1 mg/kg): 4.8 min | half-life (in vivo; mouse, iv, 1 mg/kg): 31.8 min | bioavailability (in vivo; mouse, iv, 1 mg/kg, Bioavailability): 100% | Cmax (in vivo; mouse, iv, 1 mg/kg, Cmax): 1270 ng/mL | AUC(0-inf) (in vivo; mouse, sc, 5 mg/kg): 4020 ng·h/mL | Cl_obs (in vivo; mouse, sc, 5 mg/kg): 20.83 mL/min/kg | Cmax (in vivo; mouse, sc, 5 mg/kg): 2333.3 ng/mL | Cmax_D (in vivo; mouse, sc, 5 mg/kg): 466.7 kg·ng/mL/mg | Tmax (in vivo; mouse, sc, 5 mg/kg): 34.8 min | Vz_obs (in vivo; mouse, sc, 5 mg/kg): 1.7056 L/kg | half-life (in vivo; mouse, sc, 5 mg/kg): 57 min | Cmax (in vivo; mouse, sc, 5 mg/kg, Cmax): 2330 ng/mL
